Experiment [1] deals with androgen receptor. The experiment is described as follows: androgenic activity rating (procedures described above). The arrangement: key: +: androgenic activity found; ++: high androgenic activity; +++: excellent androgenic activity. As to conditions: rated according to scheme; test procedure not specified. As for the experimental part:
(§1) Androgenic activity can be measured in various ways. Thus, the potency of androgens can be determined in vitro using the cytoplasmic androgen receptor from human breast tumor cells (MCF-7 cell line); see Bergink, E. W. et al, Comparison of the receptor binding properties of nandrolone and testosterone under in vitro and in vivo conditions, J. Steroid Biochem. 22, 831-836 (1985). It is also possible to use Chinese hamster ovary (CHO) cells transfected with the human androgen receptor (incubation time 16 h, temperature 4° C.) and compared with the affinity of 5α-dihydrotestosterone [according to the procedure described by Bergink, E. W. et al, J. Steroid Biochem. 19, 1563-1570 (1983)]. The transactivative androgen activity of the compounds of the invention can be measured, e.g. in Chinese hamster ovary cells (CHO) transfected with the human androgen receptor (hAR), in combination with a mouse mammary tumor virus (MMTV), and luciferase […] gene (incubation time 16 h, temperature 37° C.) and compared with the activity of […] [according to the procedure described by Schoonen, W. G. E. J. et al, Analyt. Biochem. 261, 222-224 (1998)]. For the in vivo potency determination of androgens the classical Hershberger test can be used. In this test the androgenic (increase in prostate weight) and anabolic activities [increase of the musculus levator ani (MLA)] of a compound are tested in immature castrated rats after daily administration for 7 days; see Hershberger, L. G. et al, Myotrophic activity of 19-Nortestosteronie and other steroids determined by modified levator ani muscle method, Proceedings of the society for experimental biology and medicine 83, 175-180 (1953). Additionally, the effect of an androgenic compound on LH suppression can be tested in mature castrated rats according to Kumar, N. et al, The biological activity of 7alpha-methyl-19-nortestosterone is not amplified in male reproductive tract as is that of testosterone, Endocrinology 130, 3677-3683 (1992).
The compounds according to the invention were tested for androgenic activity (the procedures for which have been described above) and rated according to the following scheme: […]

The target in experiment [2] is T1, human androgen receptor (hAR) (Homo sapiens, UniProt P10275).
T1 construct: expressed in transfected cells; host or cells: Chinese hamster ovary (CHO) cells
T1 sequence (P10275 1-920): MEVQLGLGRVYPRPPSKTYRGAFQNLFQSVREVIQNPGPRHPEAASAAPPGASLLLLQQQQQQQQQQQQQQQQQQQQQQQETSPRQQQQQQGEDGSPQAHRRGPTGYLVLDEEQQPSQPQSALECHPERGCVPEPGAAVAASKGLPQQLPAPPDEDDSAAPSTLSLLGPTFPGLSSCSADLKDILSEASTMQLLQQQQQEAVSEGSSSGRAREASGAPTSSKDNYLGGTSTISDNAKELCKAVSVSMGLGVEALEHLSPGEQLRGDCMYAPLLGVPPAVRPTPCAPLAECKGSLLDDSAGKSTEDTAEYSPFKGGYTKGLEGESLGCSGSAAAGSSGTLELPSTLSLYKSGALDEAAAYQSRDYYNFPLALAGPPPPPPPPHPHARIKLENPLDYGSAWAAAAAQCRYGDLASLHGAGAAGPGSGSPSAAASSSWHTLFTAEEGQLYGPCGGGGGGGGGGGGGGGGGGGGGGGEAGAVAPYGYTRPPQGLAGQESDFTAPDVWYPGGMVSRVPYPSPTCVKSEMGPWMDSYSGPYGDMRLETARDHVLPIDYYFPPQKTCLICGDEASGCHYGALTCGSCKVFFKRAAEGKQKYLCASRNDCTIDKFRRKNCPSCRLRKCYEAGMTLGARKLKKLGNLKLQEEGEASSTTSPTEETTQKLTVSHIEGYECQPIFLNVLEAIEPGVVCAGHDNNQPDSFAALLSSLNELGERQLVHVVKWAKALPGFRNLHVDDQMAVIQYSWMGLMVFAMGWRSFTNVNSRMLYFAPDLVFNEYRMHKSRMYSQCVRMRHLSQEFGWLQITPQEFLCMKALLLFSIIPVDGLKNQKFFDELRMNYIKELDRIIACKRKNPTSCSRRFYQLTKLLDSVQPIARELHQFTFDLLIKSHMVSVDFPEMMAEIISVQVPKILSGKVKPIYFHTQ
The experiment is described as follows: transactivative androgen activity in CHO cells transfected with hAR, MMTV and luciferase reporter gene. Type of experiment: cell-based. The note with it: MMTV, luciferase, incubation 16 h, 37° C., compared with the activity of dihydrotestosterone. As for the experimental part:
as §1, with “Biochem. 261, 222-224 (1998)]. For the in vivo potency determination of androgens the classical Hershberger test can be used.” left out, “Additionally, the effect of an androgenic compound on LH suppression can be tested in mature castrated rats according to Kumar, N. et al, The biological activity of 7alpha-methyl-19-nortestosterone is not amplified in male reproductive tract as is that of testosterone, Endocrinology 130, 3677-3683 (1992).” left out
The transactivative androgen activity was determined in a comparison of the following compounds: the compound of Example 1 according to the invention, i.e. (7α,14β,16α,17α)-16,17-dihydro-17-(hydroxymethyl)-7-methyl-3′H-cyclopropa[16,17]estra-4,16-dien-3-one, and compounds denoted C1 and C2, not according to the invention, which respectively are (7α,14β,16β,17α)-17-(hydroxymethyl)-7,16-dimethylestr-4-en-3-one and (7α,14β,17α)-17-(hydroxymethyl)-7,17-dimethylestr-4-en-3-one as disclosed in WO 00/53619.

Regarding `C[C@]12CC[C@H]3[C@@H](CCC4=CC(=O)CC[C@@H]43)[C@H]1C[C@@H]1C[C@@]12CO` [Example 6, (14β,16α,17α)-16,17-Dihydro-17-(hydroxymethyl)-3′H-cyclopropa[16,17]estra-4,16-dien-3-one], in experiment [1], the “Result (androgenic activity)” value is “++”.

As to `CC[C@H](O)[C@]12C[C@H]1C[C@@H]1[C@H]3[C@H](CC[C@@]12C)[C@H]1CCC(=O)C=C1C[C@H]3C` [Example 3a, [7α,14β,16α,17α(20S)]-16,17-Dihydro-20-(1-hydroxypropyl)-7-methyl-3′H-cyclopropa [16,17]estra-4,16-dien-3-one], the “Result (androgenic activity)” value in experiment [1] is “++”.

As for `C[C@@H]1CC2=CC(=O)CC[C@@H]2[C@H]2CC[C@@]3(C)[C@H](C[C@@H]4C[C@@]43[C@H](C)O)[C@@H]21` [Example 2, (7α,14β,16α,17α,20S)-16,17-Dihydro-20-hydroxy-7-methyl-3′H-cyclopropa[16,17]-19-norpregna-4,16-dien-3-one], in experiment [1], the “Result (androgenic activity)” value is recorded as “++”.

In the case of `C[C@@H]1CC2=C/C(=N\O)CC[C@@H]2[C@H]2CC[C@@]3(C)[C@H](C[C@@H]4C[C@@]43CO)[C@@H]21` [Example 5b, (3Z,7α,14β,16α,17α)-16,17-dihydro-3-(hydroxyimino)-7-methyl-3′H-cyclopropa[16,17]estra-4,16-diene-17-methanol], the “Result (androgenic activity)” value in experiment [1] is reported as “(prodrug)”.

With `C[C@]12CC[C@H]3[C@@H](CC[C@H]4CC(=O)CC[C@@H]43)[C@H]1C[C@@H]1C[C@@]12CO` [Example 7, (5α,14β,16α,17α)-16,17-Dihydro-17-(hydroxymethyl)-3′H-cyclopropa[16,17]estr-16-en-3-one], the “Result (androgenic activity)” value in experiment [1] is recorded as “++”.

For the molecule `C[C@@H]1CC2=C[C@@H](O)CC[C@@H]2[C@H]2CC[C@@]3(C)[C@H](C[C@@H]4C[C@@]43CO)[C@@H]21` [Example 4, (3β,7α,14β,16α,17α)-16,17-Dihydro-17-(hydroxymethyl)-7-methyl-3′H-cyclopropa[16,17]estra-4,16-dien-3-ol], in experiment [1], the “Result (androgenic activity)” value is “(prodrug)”.

On to `C#C[C@H](O)[C@]12C[C@H]1C[C@@H]1[C@H]3[C@H](CC[C@@]12C)[C@H]1CCC(=O)C=C1C[C@H]3C` [Example 3b, [7α,14β,16α,17α(20S)]-16,17-Dihydro-20-(1-hydroxy-2-propynyl)-7-methyl-3 ′H-cyclopropa[16,17]estra-4,16-dien-3-one], for which the “Result (androgenic activity)” value in experiment [1] is reported as “++”.

As for `C[C@@H]1CC2=C/C(=N/O)CC[C@@H]2[C@H]2CC[C@@]3(C)[C@H](C[C@@H]4C[C@@]43CO)[C@@H]21` [Example 5a, (3E,7α,14β,16α,17α)-16,17-Dihydro-3-(hydroxyimino)-7-methyl-3′H-cyclopropa[16,17]estra-4,16-diene-17-methanol], the “Result (androgenic activity)” value in experiment [1] was “(prodrug)”.

Take `C[C@@H]1CC2=CC(=O)CC[C@@H]2[C@H]2CC[C@@]3(C)[C@H](C[C@H](C)[C@H]3CO)[C@@H]21` [Example C1, (7α,14β,16β,17α)-17-(hydroxymethyl)-7,16-dimethylestr-4-en-3-one]: in experiment [2], the Transactivative androgen activity is recorded as 72.

In the case of `CC1CC2=CC(=O)CCC2C2CCC3(C)C(CCC3(C)CO)C12` (stereo not drawn) [Example C2, (7α,14β,17α)-17-(hydroxymethyl)-7,17-dimethylestr-4-en-3-one], the Transactivative androgen activity in experiment [2] was determined as 22.

As to `C[C@@H]1CC2=CC(=O)CC[C@@H]2[C@H]2CC[C@@]3(C)[C@H](C[C@@H]4C[C@@]43CO)[C@@H]21` [Example 1, (7α,14β,16α,17α)-16,17-Dihydro-17-(hydroxymethyl)-7-methyl-3′H-cyclopropa[16,17]estra-4,16-dien-3-one], the “Result (androgenic activity)” value in experiment [1] is reported as “+++”. Also, the Transactivative androgen activity in experiment [2] was determined as 263.

The values above are taken from patent publication US6949531B2, “14 β, 16, 17-methylene steroids as novel androgens” (Akzo Nobel N.V., priority 2000, dated 2005).
